Data reported in patent US8252737B2, “Antimicrobial peptides and methods of use” (priority 2004, dated 2012).
Values after ≈ are worked out from the molar mass of the structure shown. Read-outs that look alike come from different tables or passages of the source. Square brackets hold non-standard residues; d marks the D form. Peptide text beside a SMILES is read from it.

What was measured:
[1] = Circular dichroism spectroscopy of helical structure (benign buffer and 50% TFE); type: physicochemical
Method in brief: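 Peptide CD spectra at 25 °C, 190–250 nm, in benign buffer (50 mM KH2PO4/K2HPO4, 100 mM KCl, pH 7) and in the same buffer with 50% TFE. Samples were a 10-fold dilution of ~500 μM stock. Mean residue molar ellipticity at 222 nm gave relative α-helicity.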

human erythrocytes = test: Hemolytic activity (MHC), Protocol B, 18 hours; details: for MHC (μg/ml) hRBC: maximal peptide concentration with no hemolysis after 18 hours
Method in brief: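 Hemolysis of 1% human erythrocytes in phosphate-buffered saline by 2-fold diluted D-peptides, incubated 18 h at 37 °C; hemoglobin release read spectrophotometrically. Value is the maximal peptide concentration producing no hemolysis, relative to erythrocytes without peptide.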

[2] = test system: Pseudomonas aeruginosa strains; details: for Antimicrobial activity Fold: fold improvement in geometric mean MIC compared to V681; for MIC GM: geometric mean of six Pseudomonas aeruginosa clinical isolates; for MIC CP 204: strain CP 204; for MIC M 2: strain M 2; for MIC PA 14: strain PA 14; for MIC PAK: strain PAK; for MIC PAO 1: strain PAO 1; for MIC WR 5: strain WR 5
P. aeruginosa H187 wt = test system: P. aeruginosa H187 wt
Procedure: (§1) The geometric mean MIC values from 6 microbial strains in this table were calculated to provide an overall evaluation of antimicrobial activity against gram-negative bacteria.
(§2) Measurement of Antimicrobial Activity—Minimal inhibitory concentrations (MICs) were determined using a standard microtiter dilution method in LB (Luria-Bertani) no-salt medium (10 g of tryptone and 5 g of yeast extract per liter). Briefly, cells were grown overnight at 37° C. in LB and diluted in the same medium. […] Plates were incubated at 37° C. for 24 hours and MICs determined as the lowest peptide concentration that inhibited growth. Alternatively, minimal inhibitory concentrations were determined using a standard microtiter dilution method in a Mueller-Hinton (MH) medium. Briefly, cells were grown overnight at 37° C. in MH broth and diluted in the same medium. […] Plates were incubated at 37° C. for 24 hours and MICs determined as the lowest peptide concentration that inhibited growth. However, for MIC determination of Pseudomonas aeruginosa clinical isolates, brain heart infusion (BH1) medium was used instead of MH broth. In addition, the bacteria were diluted to a final inoculum of 1×10^6 colony-forming units/ml.

S. typhimurium C610 abs = test system: S. typhimurium C610 abs
Procedure: as §1, §2

C. albicans = details: fungus
Method in brief: (§3)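 Microtiter dilution in LB no-salt or Mueller-Hinton medium, with BHI for Pseudomonas aeruginosa clinical isolates (final inoculum 1×10^6 CFU/ml). Plates were incubated 24 hours at 37° C. MIC was the lowest peptide concentration inhibiting growth.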

E. faecalis = test system: E. faecalis
Method in brief: as §3

[3] = 5° C., 100 mM KCl, 50 mM PO4 pH 7.4
[4] = 5° C., relative to D-V681 in 50% TFE
[5] = 5° C., benign buffer pH 7.4 containing 50% TFE
[6] = 5° C., pH 7.4 benign, relative to D-V681 in 50% TFE
[7] = 25° C., relative to NAL in 50% TFE
[8] = 25° C., benign buffer (100 mM KCl, 50 mM PO4 pH 7.0)
[9] = 25° C., benign buffer diluted 1:1 (v/v) with TFE
[10] = 25° C., benign buffer, relative to NAL in 50% TFE
[11] = maximal peptide concentration producing no hemolysis after 18 hours, 37° C.

Molecule | [θ]222 Benign [1, 3] [deg · cm^2 · dmol^−1] | % helix 50% TFE [1, 4] [%] | [θ]222 50% TFE [1, 5] [deg · cm^2 · dmol^−1] | % helix Benign [1, 6] [%] | % helix 50% TFE [1, 7] [%] | [θ]222 Benign [1, 8] | [θ]222 50% TFE [1, 9] | % helix Benign [1, 10] [%] | Hemolytic activity MHC (human erythrocytes; [11]) [µg/mL] | MHC (μg/ml) hRBC (human erythrocytes; Table 11) [µg/mL] | MHC (μg/ml) hRBC (human erythrocytes; Table 12) [µg/mL] | Antimicrobial activity Fold [2] | MIC GM [2] [µg/mL] | MIC CP 204 [2] [µg/mL] | MIC M 2 [2] [µg/mL] | MIC PA 14 [2] [µg/mL] | MIC PAK [2] [µg/mL] | MIC PAO 1 [2] [µg/mL] | MIC WR 5 [2] [µg/mL] | MIC (μg/ml) C. albicans (C. albicans) [µg/mL] | other results
CC[C@H](C)[C@H](NC(=O)[C@H](C)NC(=O)[C@H](CCCCN)NC(=O)[C@H](CC(C)C)NC(=O)[C@H](C)NC(=O)[C@@H](NC(=O)[C@H](Cc1cnc[nH]1)NC(=O)[C@H](CC(C)C)NC(=O)[C@@H](NC(=O)[C@@H](NC(=O)[C@H](CCCCN)NC(=O)[C@H](CCCCN)NC(=O)[C@H](C)NC(=O)[C@H](CO)NC(=O)[C@H](CCCCN)NC(=O)[C@H](Cc1ccccc1)NC(=O)[C@@H](NC(=O)[C@H](CCCCN)NC(=O)[C@H](CC(C)C)NC(=O)[C@H](Cc1ccccc1)NC(=O)[C@H](CO)NC(=O)[C@H](CCCCN)NC(=O)[C@H](Cc1c[nH]c2ccccc12)NC(=O)[C@H](CCCCN)NC(C)=O)[C@@H](C)O)[C@@H](C)O)C(C)C)[C@@H](C)O)C(=O)N[C@@H](CO)C(=O)N[C@@H](CO)C(N)=O [NKL] | −1400 | 96 | −27000 | 5 | 91 | −1,450 deg · cm^2 · dmol^−1 | −26,250 deg · cm^2 · dmol^−1 | 5 | 250.0 | 250.0 | 250.0 | 0.6 | 49.6 (≈ 16.6 µM) | 7.8 (≈ 2.61 µM) | 31.3 (≈ 10.5 µM) | 62.5 (≈ 20.9 µM) | 125.0 (≈ 41.8 µM) | 31.3 (≈ 10.5 µM) | 250.0 (≈ 83.6 µM) | 50.0 (≈ 16.7 µM) | Hemolytic activity Fold (human erythrocytes; fold decrease in hemolytic activity compared to V681, 18 hours): 32; Hemolytic activity MHC (human erythrocytes; maximal peptide concentration showing no hemolysis after 18 hours, hRBC, Table 14): 250.0 µg/mL; MIC (μg/ml) CP 204 ([2]; Pseudomonas aeruginosa clinical isolate CP 204): 7.8 µg/mL (≈ 2.61 µM); MIC (μg/ml) M 2 ([2]; Pseudomonas aeruginosa clinical isolate M 2): 31.3 µg/mL (≈ 10.5 µM); MIC (μg/ml) PA 14 ([2]; Pseudomonas aeruginosa clinical isolate PA 14): 62.5 µg/mL (≈ 20.9 µM); MIC (μg/ml) PAK ([2]; Pseudomonas aeruginosa clinical isolate PAK): 125.0 µg/mL (≈ 41.8 µM); MIC (μg/ml) PAO 1 ([2]; Pseudomonas aeruginosa clinical isolate PAO 1): 31.3 µg/mL (≈ 10.5 µM); MIC (μg/ml) WR 5 ([2]; Pseudomonas aeruginosa clinical isolate WR 5): 250.0 µg/mL (≈ 83.6 µM); MIC (μg/ml) GM ([2]; geometric mean of the MIC values for the 6 Pseudomonas aeruginosa clinical isolates): 49.6 µg/mL (≈ 16.6 µM); MIC (μg/ml) Pa H188 abs (P. aeruginosa H187 wt; Pseudomonas aeruginosa antibiotic sensitive strain): 3.1 µg/mL (≈ 1.04 µM); MIC (μg/ml) Pa H187 wt (P. aeruginosa H187 wt; Pseudomonas aeruginosa wild-type lab strain): 6.3 µg/mL (≈ 2.11 µM); MIC (μg/ml) St C610 abs (S. typhimurium C610 abs; Salmonella typhimurium antibiotic sensitive strain): 3.1 µg/mL (≈ 1.04 µM); MIC (μg/ml) E. faecalis C625 wt (E. faecalis; wild type strain): 50.0 µg/mL (≈ 16.7 µM); MIC (μg/ml) S. aureus 622 wt (Staphylococcus aureus): 12.5 µg/mL (≈ 4.18 µM); MIC (μg/ml) S. aureus 623 methR (Staphylococcus aureus): 12.5 µg/mL (≈ 4.18 µM); MIC (μg/ml) C. xerosis C875 wt (Corynebacterium xerosis): 1.6 µg/mL (≈ 0.535 µM)
CC[C@H](C)[C@H](NC(=O)[C@H](C)NC(=O)[C@H](CCCCN)NC(=O)[C@H](CC(C)C)NC(=O)[C@H](C)NC(=O)[C@@H](NC(=O)[C@H](Cc1c[nH]cn1)NC(=O)[C@H](CC(C)C)NC(=O)[C@@H](NC(=O)[C@@H](NC(=O)[C@H](CCCCN)NC(=O)[C@@H](NC(=O)[C@H](C)NC(=O)[C@H](CO)NC(=O)[C@H](CCCCN)NC(=O)[C@H](Cc1ccccc1)NC(=O)[C@@H](NC(=O)[C@H](CCCCN)NC(=O)[C@H](CC(C)C)NC(=O)[C@H](Cc1ccccc1)NC(=O)[C@H](CO)NC(=O)[C@H](CCCCN)NC(=O)[C@H](Cc1c[nH]c2ccccc12)NC(=O)[C@H](CCCCN)NC(C)=O)[C@@H](C)O)C(C)C)[C@@H](C)O)C(C)C)[C@@H](C)O)C(=O)N[C@@H](CO)C(=O)N[C@@H](CO)C(N)=O [Peptide V681, reference compound] | −13000 | 99 | −27950 | 46 | 94 | −12,900 deg · cm^2 · dmol^−1 | −27,300 deg · cm^2 · dmol^−1 | 45 | 7.8 | 7.8 | 7.8 | 1.0 | 27.8 (≈ 9.39 µM) | 15.6 (≈ 5.27 µM) | 15.6 (≈ 5.27 µM) | 62.5 (≈ 21.1 µM) | 31.3 (≈ 10.6 µM) | 15.6 (≈ 5.27 µM) | 62.5 (≈ 21.1 µM) | 12.5 (≈ 4.22 µM) | MIC (μg/ml) Pa H188 abs (P. aeruginosa H187 wt): 3.1 µg/mL (≈ 1.05 µM); MIC (μg/ml) Pa H187 wt (P. aeruginosa H187 wt; H187 wt): 6.3 µg/mL (≈ 2.13 µM); MIC (μg/ml) St C610 abs (S. typhimurium C610 abs; C610 abs): 3.1 µg/mL (≈ 1.05 µM); MIC (μg/ml) E. faecalis C625 wt (E. faecalis): 6.3 µg/mL (≈ 2.13 µM); MIC (μg/ml) S. aureus 623 methR (Staphylococcus aureus; methicillin-resistant clinical strain): 6.3 µg/mL (≈ 2.13 µM); MIC (μg/ml) S. aureus 622 wt (Staphylococcus aureus; wild type strain): 3.1 µg/mL (≈ 1.05 µM); MIC (μg/ml) C. xerosis C875 wt (Corynebacterium xerosis): 3.1 µg/mL (≈ 1.05 µM)
Ac-KWKSFLKTFKSAGKTVLHTALKAISS-NH2 [NG] |  |  |  |  | 84 |  | −24,350 deg · cm^2 · dmol^−1 | 8 |  |  |  |  |  |  |  |  |  |  |  |  | 
CC[C@H](C)[C@H](NC(=O)[C@H](C)NC(=O)[C@H](CCCCN)NC(=O)[C@H](CC(C)C)NC(=O)[C@H](C)NC(=O)[C@@H](NC(=O)[C@H](Cc1c[nH]cn1)NC(=O)[C@H](CC(C)C)NC(=O)[C@@H](NC(=O)[C@@H](NC(=O)[C@H](CCCCN)NC(=O)[C@@H](NC(=O)[C@H](C)NC(=O)[C@H](NC(=O)[C@H](CCCCN)NC(=O)[C@H](Cc1ccccc1)NC(=O)[C@@H](NC(=O)[C@H](CCCCN)NC(=O)[C@H](CC(C)C)NC(=O)[C@H](Cc1ccccc1)NC(=O)[C@H](CO)NC(=O)[C@H](CCCCN)NC(=O)[C@H](Cc1c[nH]c2ccccc12)NC(=O)[C@H](CCCCN)NC(C)=O)[C@@H](C)O)C(C)C)C(C)C)[C@@H](C)O)C(C)C)[C@@H](C)O)C(=O)N[C@@H](CO)C(=O)N[C@@H](CO)C(N)=O [PVD] (Ac-KWKSFLKTFK[dV]AVKTVLHTALKAISS-NH2) |  |  |  |  | 72 | −2,400 deg · cm^2 · dmol^−1 | −20,800 deg · cm^2 · dmol^−1 | 8 |  |  |  |  |  |  |  |  |  |  |  |  | 
Ac-KWKSFLKTFKSALKTVLHTALKAISS-NH2 [NLL] |  |  |  |  | 98 | −20,600 deg · cm^2 · dmol^−1 | −28,250 deg · cm^2 · dmol^−1 | 71 |  |  |  |  |  |  |  |  |  |  |  |  | 
